Measurements reported in patent US8092800B2 (priority 2005, dated 2012).
Marks after values point to notes of the source that are not given here. Square brackets hold non-standard residues; d marks the D form. Peptide text beside a SMILES is read from it. * marks the point of attachment. Sta = CC(C)C[C@H](N)[C@@H](O)CC(=O)O; Isovaleryl = CC(C)CC(=O)*

Experiments:
C. albicans = test: Systemic C. albicans infection in Balb/c mice, PEGylated dAbs; format: in vivo, Candida albicans; settings: 1 mg/kg at 2 h, 6 h and 24 h post infection
Method: Briefly, mice were chronically infected with C. albicans by injecting 1×10^6 cells per mouse via the lateral tail vein (in 0.2 ml saline). Anti-SAP2 or anti-MP65 dAbs were administered as previously indicated. Survival rates compared with control animals were measured.
PEGylated versions of both monomer and dimer constructs were assayed for efficacy in controlling a systemic C. albicans infection in Balb/c mice, using a protocol similar to the murine systemic model described above. One mg/kg of PEGylated dAb protein or fluconazole was administered at 2 h, 6 h and 24 h post infection to groups of 8 mice.

[1] = system: Candida albicans strain SA40; settings: cited from earlier work
SAP2 = SAP2 (Candida albicans, UniProt P0DJ06)
Sequence of SAP2 (P0DJ06 57-398): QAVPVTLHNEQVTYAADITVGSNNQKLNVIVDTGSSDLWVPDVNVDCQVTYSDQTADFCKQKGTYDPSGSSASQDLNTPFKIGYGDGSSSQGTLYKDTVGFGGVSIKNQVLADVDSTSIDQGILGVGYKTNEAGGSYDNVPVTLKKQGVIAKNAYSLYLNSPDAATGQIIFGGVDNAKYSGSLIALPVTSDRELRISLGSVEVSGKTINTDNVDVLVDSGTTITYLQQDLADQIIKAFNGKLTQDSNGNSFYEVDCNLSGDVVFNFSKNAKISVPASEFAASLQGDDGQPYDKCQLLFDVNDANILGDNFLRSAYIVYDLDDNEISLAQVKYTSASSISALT
Method: This was based on bovine serum albumin degradation by a native, highly purified SAP2 preparation, essentially as described by Ross et al. Briefly, each assay contained 0.6 ml of 1% (w/v) BSA (Sigma Chem. Co., Detroit, Mich.) in 50 mM sodium citrate pH 3.2 and 0.15 enzyme solution (100 μg/ml). After 30 min at 37° C. 0.4 ml 10% (w/v) trichloroacetic acid was added. The tubes were stored in ice for 30 min and then centrifuged (1600×g) for 10 min. The absorbance of supernatant was read at 280 nm. The control was 1% BSA in enzyme-free citrate buffer. One unit of enzyme catalysed a delta OD of 1 per minute.

Candida albicans = test: Adherence of Candida to plastic; format: cell-based; settings: anti-MP65 dAbs
Method: The fungal cells were grown at 28° C. on YPD agar slants (2.0% wt/vol glucose, 1.0% wt/vol yeast extract, 2.0 wt/vol Bacto peptone, (Difco, Detroit, Mich.). Single suspensions of each organism were prepared by a modification of the procedure of Rotronsen (Rotronsen, D., et al. 1986. Rev Infect Dis.; 8:73-85). Briefly, cells were grown 24 h at 28° C. on a rotating drum in YBD broth pH5.0 (0.2% wt/vol yeast extract, 2.0% wt/vol […] and 2.0% wt/vol dextrose, (Difco, Detroit, Mich.). After harvesting by centrifugation, the C. albicans cells were washed three times in physiological solution (0.85% NaCl). Blastospores were counted with Thoma camera and adjusted to desired concentration (10^8 cells/ml) in Hank's Balanced Salt Solution with calcium and magnesium (Hyclone, Logan, Utah).
For adherence to the plastic, the fungal cells, grown as above, were washed twice with water and suspended at 1.5×10^3 cells/ml in modified Lee's or M199 liquid media. 1.5×10^3 cells were incubated for 3 hrs at 37° C. in 6-well polystyrene plates (Corning Incorporated, Corning, N.Y.,). After extensive washing, 1 ml of Sabouraud dextrose agar was poured in each well and allowed to solidify. After incubation at 37° C. for 24 hrs, colonies were counted and the results expressed as percentage of the inoculum. […]

[2] = system: Candida albicans strain SA40; test: Rat vaginal candidiasis model, strain SA40; format: in vivo; settings: rats, pre-treated 30 min before intravaginal challenge with SA40
Method: The selected dAbs as described above were assayed for their capacity to accelerate fungus clearance from the rat vaginal cavity challenged by a virulent vaginopathic Candida strain. The controls were the use of an irrelevant dAb, and an anti-enolase antibody as negative ones and the antimycotic fluconazole and pepstatin A (the prototypal Sap inhibitor) as positive ones.

OC(Cn1cncn1)(Cn1cncn1)c1ccc(F)cc1F [Fluconazole, fluconazole]
Mean Survival Time (C. albicans): >30 days | Survival (C. albicans): 88% | susceptibility of strain [1]: fully susceptible

CC(C)CC(=O)N[C@H](C(=O)N[C@H](C(=O)N[C@@H](CC(C)C)[C@@H](O)CC(=O)N[C@@H](C)C(=O)N[C@@H](CC(C)C)[C@@H](O)CC(=O)O)C(C)C)C(C)C [pepstatin, pepstatin A] (Isovaleryl-VV[Sta]A[Sta]-OH)
ΔOD/ml/min (BSA degradation by SAP) (SAP2; citrate buffer + 1% BSA + SAP, acidic conditions, no-inhibitor control 1.0): 0.36 ΔOD/ml/min | % Inhibition (SAP2; inhibition of BSA degradation by SAP2, compared with pepstatin (100*)): 100* %

B1: ADR3-1: MP65 binding dAb, SEQ ID No 5 (antibody, listed as Homo sapiens, V domains shown)
VH: EVQLLESGGGLVQPGGSLRLSCAASGFTFPDYSMTWVRQAPGKGLEWVSLISNSGKTTMYADSVKGRFTISRDNSKNTLYLQMNSLRAEDTAVYYCAKWVNRILQEFDYWGQGTLVTVSS
modifications: MP65-binding dAb
capacity to inhibit adherence to plastic (Candida albicans): capacity to inhibit adherence to plastic

B2: ADR4-6: Sap2 binding dAb, SEQ ID No 18 (protein, listed as Homo sapiens)
VHH: EVQLLESGGGLVQPGGSLRLSCAASGFRVSNYDLTWVRQAPGKGLEWVSTISATNGSTYYADSVKGRFTISRDNSKNTLYLQMNSLRAEDTAVYYCAAVTWWLLRHNDNLGFWGQGTLVTVSS
modifications: Sap2-binding dAb
day of healing/resolution of infection (<1 CFU/μl of vaginal fluid), preventative [2]: 21 days

B3: ADR4-13: Sap2 binding dAb, SEQ ID No 25 (protein, listed as Homo sapiens)
VHH: EVQLLESGGGLVQPGGSLRLSCAASGFSISYKNMAWVRQAPGKGLEWVSAIKAANGSTYYADSVKGRFTISRDNSKNTLYLQMNSLRAEDTAVYYCATGSQKKRTYTFDFWGQGTLVTVSS
modifications: Sap2-binding dAb
day of healing/resolution of infection (<1 CFU/μl of vaginal fluid), preventative [2]: 21 days
